Test results taken from patent US20250163056A1, “NONMUSCLE MYOSIN II INHIBITORS” (The University of Florida Research Foundation, Inc., priority 2018, published 2025).

Tests used:
[1] = target: Bovine cardiac myosin (Bos taurus (Bovine), UniProt Q9BE39); assay: Cardiac muscle myosin II actin-activated ATPase assay (NADH-coupled); assay type: biochemical; parameters: key to Ratio CMMII:NMII Ki/EC50: NMII-sel: no Ki value for cardiac myosin II could be determined; the compounds had no detectable inhibitory properties versus the cardiac myosin II; conditions: for Ratio CMMII:NMII Ki/EC50: cardiac myosin II Ki over nonmuscle myosin II EC50; for Ki: 300 nM cardiac myosin, 10 μM actin, 25° C., read-out: CMMII KI
Sequence of Bovine cardiac myosin (Q9BE39 whole entry): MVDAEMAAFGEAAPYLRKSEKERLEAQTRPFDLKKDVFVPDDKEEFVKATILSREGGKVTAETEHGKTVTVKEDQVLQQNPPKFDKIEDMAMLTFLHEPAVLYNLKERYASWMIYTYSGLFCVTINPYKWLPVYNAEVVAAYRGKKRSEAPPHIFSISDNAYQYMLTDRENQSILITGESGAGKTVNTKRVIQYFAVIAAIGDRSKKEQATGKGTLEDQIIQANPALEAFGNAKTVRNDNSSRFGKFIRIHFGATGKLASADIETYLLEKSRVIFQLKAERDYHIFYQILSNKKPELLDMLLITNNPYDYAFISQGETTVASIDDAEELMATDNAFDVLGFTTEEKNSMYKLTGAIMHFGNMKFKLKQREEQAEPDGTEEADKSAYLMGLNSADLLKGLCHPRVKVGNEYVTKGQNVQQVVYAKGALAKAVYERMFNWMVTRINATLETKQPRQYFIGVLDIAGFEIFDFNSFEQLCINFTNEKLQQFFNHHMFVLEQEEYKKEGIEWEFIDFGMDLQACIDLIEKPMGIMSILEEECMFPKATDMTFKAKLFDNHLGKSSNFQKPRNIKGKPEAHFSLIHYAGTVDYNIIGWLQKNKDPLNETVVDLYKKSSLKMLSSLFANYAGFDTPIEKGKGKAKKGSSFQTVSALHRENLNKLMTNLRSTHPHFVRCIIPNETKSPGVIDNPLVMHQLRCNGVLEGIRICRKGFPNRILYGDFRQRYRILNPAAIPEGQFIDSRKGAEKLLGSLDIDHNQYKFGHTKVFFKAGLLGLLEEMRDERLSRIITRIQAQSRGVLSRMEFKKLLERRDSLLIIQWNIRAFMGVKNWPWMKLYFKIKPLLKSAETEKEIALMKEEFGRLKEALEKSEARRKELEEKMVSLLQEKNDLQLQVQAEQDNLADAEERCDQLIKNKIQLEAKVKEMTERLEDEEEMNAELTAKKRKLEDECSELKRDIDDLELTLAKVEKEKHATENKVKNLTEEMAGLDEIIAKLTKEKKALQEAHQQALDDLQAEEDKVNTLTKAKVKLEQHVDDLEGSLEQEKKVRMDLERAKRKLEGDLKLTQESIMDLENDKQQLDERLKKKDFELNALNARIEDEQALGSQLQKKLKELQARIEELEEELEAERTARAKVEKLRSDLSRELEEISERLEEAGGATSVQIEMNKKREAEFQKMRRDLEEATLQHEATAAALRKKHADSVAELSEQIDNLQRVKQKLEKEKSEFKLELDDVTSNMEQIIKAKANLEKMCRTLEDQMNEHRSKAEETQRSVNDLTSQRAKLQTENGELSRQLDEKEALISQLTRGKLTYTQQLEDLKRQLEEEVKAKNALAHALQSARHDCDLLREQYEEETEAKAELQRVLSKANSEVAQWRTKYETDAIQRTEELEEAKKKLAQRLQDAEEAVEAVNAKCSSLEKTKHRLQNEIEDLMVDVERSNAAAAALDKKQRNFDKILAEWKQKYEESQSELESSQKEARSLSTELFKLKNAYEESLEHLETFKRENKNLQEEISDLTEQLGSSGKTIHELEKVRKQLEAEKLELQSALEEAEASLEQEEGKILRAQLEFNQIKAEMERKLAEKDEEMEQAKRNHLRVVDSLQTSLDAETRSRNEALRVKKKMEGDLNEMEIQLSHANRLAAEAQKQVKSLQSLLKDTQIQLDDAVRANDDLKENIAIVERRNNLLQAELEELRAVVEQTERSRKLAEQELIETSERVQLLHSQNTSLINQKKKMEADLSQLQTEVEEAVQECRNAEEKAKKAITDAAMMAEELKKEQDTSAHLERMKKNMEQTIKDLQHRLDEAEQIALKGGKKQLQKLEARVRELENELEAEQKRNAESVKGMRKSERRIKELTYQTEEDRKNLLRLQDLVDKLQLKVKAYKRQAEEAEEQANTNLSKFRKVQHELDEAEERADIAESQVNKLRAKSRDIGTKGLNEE
Sequence of Bovine cardiac myosin (P85100 whole entry partner): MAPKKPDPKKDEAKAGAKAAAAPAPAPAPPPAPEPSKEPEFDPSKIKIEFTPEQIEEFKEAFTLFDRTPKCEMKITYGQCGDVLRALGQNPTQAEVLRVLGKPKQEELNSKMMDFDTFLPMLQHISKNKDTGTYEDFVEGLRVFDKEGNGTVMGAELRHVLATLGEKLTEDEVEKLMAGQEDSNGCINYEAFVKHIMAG
Sequence of Bovine cardiac myosin (Q3SZE5 whole entry partner): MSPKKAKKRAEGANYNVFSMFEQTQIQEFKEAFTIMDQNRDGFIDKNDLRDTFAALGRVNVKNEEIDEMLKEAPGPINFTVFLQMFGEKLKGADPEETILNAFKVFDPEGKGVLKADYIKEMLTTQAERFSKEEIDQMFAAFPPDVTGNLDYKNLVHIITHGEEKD
From the text: (§1) The cardiac muscle myosin II actin-activated ATPase assay is a biochemical assay. Specifically, it is an NADH (nicotinamide adenine dinucleotide)-coupled ATPase assay that relies on NADH fluorescence as a readout. Cardiac myosin is a mechanochemical energy transducer that hydrolyzes ATP to generate force in the presence of its activator, F-actin. The resulting ADP is regenerated to ATP by pyruvate kinase (PK) that transforms one molecule of phosphoenolpyruvate (PEP) to pyruvate in parallel. Subsequently, pyruvate is reduced to lactate by lactate dehydrogenase (LDH) that, in turn, oxidizes one molecule of NADH to NAD. Therefore, the decrease in NADH concentration as a function of time equals the ATP hydrolysis rate. Bovine cardiac myosin is obtained from a commercial source, Cytoskeleton. PK, LDH, ATP, PEP, and NADH are obtained from Sigma. F-actin is prepared in house from Rabbit Muscle Acetone Powder. The assay is run at 25° C. in 384 well black-wall polystyrene microplates with a total volume of 20 μl per well. NADH fluorescence is monitored for 30 minutes with an EnVision Multimode Plate Reader. The slope of the fluorescence response, which is proportional to the reaction rate, is determined by simple linear regression. Final assay conditions are 300 nM cardiac myosin, 10 μM actin, 40 U/ml LDH, 200 U/ml PK, 220 μM NADH, 1 mM PEP, 1 mM ATP in a buffer containing 10 mM 3-(N-morpholino)propanesulfonic acid (pH=7.0), 2 mM MgCl2, 0.15 mM ethylene glycol-bis(p-aminoethyl ether)-N,N,N′,N′-tetraacetic acid, 0.1 mg/mL bovine serum albumin, 0.5% (V/V) dimethyl sulfoxide (DMSO) and 1 mM dithiothreitol. Prior to testing the inhibitory activity of the compounds, a two-fold dilution series starting at 10 mM compound concentration is prepared in DMSO. Subsequently, 100 nl is transferred to each well of the measuring plate containing a mixture of myosin, LDH and PK. The enzymatic reaction is started with the addition of a mixture containing ATP, PEP, NADH and actin. The highest final compound concentration is 50 uM. 20 μM para-aminoblebbistatin in 0.5% DMSO serves as the positive control and 0.5% DMSO alone is the negative control. Reaction rates are determined by using the fluorescence responses of a dilution series of NADH included in all plates and plotted as a function of inhibitor concentration. All measurements are carried out in triplicate. Inhibitory constants are determined by fitting the 16 point dose-response data to a quadratic equation corresponding to a simple one-to-one binding model.

[2] = Photostability, percentage remaining undegraded under illumination or in the dark; conditions: for Photostability 4 hours: percentage remaining undegraded after 4 hours illumination; for Photostability 24 hours: percentage remaining undegraded after 24 hours illumination; for Photostability Dark (24 h): percentage remaining undegraded in the dark
[3] = target: Rabbit skeletal myosin; assay: Skeletal muscle myosin II actin-activated ATPase assay; assay type: biochemical; conditions: 20 nM skeletal muscle myosin II; read-out: SKMMII KI
From the text: as §1
The skeletal muscle myosin II actin-activated ATPase assay is performed the same as for cardiac muscle myosin II with the following exceptions: Rabbit skeletal myosin is obtained from Cytoskeleton and the final assay conditions contain 20 nM skeletal muscle myosin II.

| Compound | Ratio CMMII:NMII Ki/EC50 [1] | Photostability 4 hours [2] | Photostability 24 hours [2] | Photostability Dark (24 h) [2] | Ki [3] | Ki [1] |
| --- | --- | --- | --- | --- | --- | --- |
| Cc1ccc(N2CC[C@@]3(O)C(=O)c4cc(F)c(C)cc4N=C23)cc1C [BPN-0026607] | NMII-sel | 98.5% | 84.7% | 98.1% | 5.8 µM | – |
| Cc1cc2c(cc1C)C(=O)[C@]1(O)CCN(c3ccc4ncsc4c3)C1=N2 [BPN-0027122] | 26.5 | 69.5% | 5.3% | 97.1% | 5.9 µM | 45 µM |
| Cc1ccc2c(c1)C(=O)[C@]1(O)CCN(c3ccc4ccncc4c3)C1=N2 [BPN-0027042] | NMII-sel | 92.7% | 13.8% | >99% | 10 µM | – |
| Cc1ccc2c(c1)C(=O)[C@]1(O)CCN(c3ccc4nc(C#N)ccc4c3)C1=N2 [BPN-0027393] | 5.8 | 95.2% | 83.9% | 97.5% | 3.5 µM | 30 µM |
| Cc1ccc2c(c1)C(=O)[C@]1(O)CCN(c3ccc4nccnc4c3)C1=N2 [BPN-0027330] | 8.0 | 92.7% | 64.6% | >99% | 4.2 µM | 80 µM |
| Cc1ccc2c(c1)C(=O)[C@]1(O)CCN(c3ccc4cccnc4c3)C1=N2 [BPN-0027039] | 3.1 | 89.8% | 31.3% | 95.9% | 4.6 µM | 68 µM |
| Cc1cc2c(cc1C)C(=O)[C@]1(O)CCN(c3cnc(C)c(C)c3)C1=N2 [BPN-0028694] | 8.4 | 55.3% | 11.2% | 98.0% | 1.7 µM | 16 µM |
| Cc1cc2c(cc1F)C(=O)[C@]1(O)CCN(c3ccc4ncccc4c3)C1=N2 [BPN-0027197] | NMII-sel | >99% | 36.4% | >99% | 2.4 µM | – |
| Cc1cc2c(cc1C)C(=O)[C@]1(O)CCN(c3cnc(CO)c(C)c3)C1=N2 [BPN-0028733] | 3.1 | 82.1% | 14.8% | 96.6% | 6.8 µM | 27 µM |
| O=C1c2c(sc3c2CCCC3)N=C2N(c3ccccc3)CC[C@@]12O [BPN-0027043] | NMII-sel | 97.7% | 72.3% | >99% | 15 µM | – |
| Cc1ccc2c(c1)C(=O)[C@]1(O)CCN(c3ccc4nc(CO)ccc4c3)C1=N2 [BPN-0028554] | 12.4 | 87.6% | 35.9% | 97.6% | 9 µM | 120 µM |
| Cc1nc2cc(N3CC[C@@]4(O)C(=O)c5cc(C)c(C)cc5N=C34)ccc2s1 [BPN-0027491] | 10.4 | 54.0% | 6.7% | 97.1% | 0.68 µM | 24 µM |
| Cc1cc2c(s1)C(=O)[C@]1(O)CCN(c3ccc4ncccc4c3)C1=N2 [BPN-0027181] | 33.7 | >99% | 99.0% | >99% | 3.1 µM | 91 µM |
| Cc1cc2c(cc1C)C(=O)[C@]1(O)CCN(c3ccc4ncc(CN(C)C)cc4c3)C1=N2 [BPN-0028866] | NMII-sel | 77.8% | 2.9% | 97.8% | 400 µM | – |
| Cc1cc2c(cc1C)C(=O)[C@]1(O)CCN(c3cnc4c(c3)OCCN4)C1=N2 [BPN-0028821] | 12.5 | 89.8% | 29.1% | 98.5% | 0.77 µM | 12 µM |

Now from value to compound:

| Ratio CMMII:NMII Ki/EC50 [1] | Photostability 4 hours [2] | Photostability 24 hours [2] | Photostability Dark (24 h) [2] | Ki [3] | Ki [1] | Compound |
| --- | --- | --- | --- | --- | --- | --- |
| 3.1 | 40.7% | <1% | >99% | 1.4 µM | 5.3 µM | Cc1cc2c(cc1C)C(=O)[C@]1(O)CCN(c3cccs3)C1=N2 [BPN-0026708] |
| 15.0 | 69.6% | 2.3% | 94.2% | 0.29 µM | 15 µM | COc1ccc(N2CC[C@@]3(O)C(=O)c4cc(F)c(C)cc4N=C23)cc1 [BPN-0026605] |
| NMII-sel | 89.4% | 5.1% | >99% | 12 µM | – | O=C1c2cc(Cl)ccc2N=C2N(c3ccc4ccsc4c3)CC[C@@]12O [BPN-0026545] |
| NMII-sel | 98.8% | 94.7% | 99% | 2.8 µM | – | Cc1ccc2cc(N3CC[C@@]4(O)C(=O)c5sc(C)cc5N=C34)ccc2n1 [BPN-0028863] |
| 31.7 | 93.4% | 58.1% | 96.4% | 1.9 µM | 95 µM | Cc1ccc2cc(N3CC[C@@]4(O)C(=O)c5cc(C)sc5N=C34)ccc2n1 [BPN-0028898] |
| NMII-sel | 80.5% | 5.5% | >99% | 4.3 µM | – | Cc1ccc2c(c1)C(=O)[C@]1(O)CCN(c3ccc4ccsc4c3)C1=N2 [BPN-0026650] |
| 6.1 | 70.9% | 1.8% | >99% | 0.8 µM | 11 µM | CCc1cc2c(s1)N=C1N(c3ccc(OC)cc3)CC[C@@]1(O)C2=O [BPN-0026881] |
